Results on six compounds are retold here after ChEMBL document CHEMBL5465560, “Selectivity Literature for EUbOPEN Chemogenomic Library” (2024).

SMILES strings stand for the structures.

Assay [1] addresses T1, Cytoplasmic tyrosine-protein kinase BMX (Homo sapiens) (UniProt P51813).
T1 sequence (whole entry): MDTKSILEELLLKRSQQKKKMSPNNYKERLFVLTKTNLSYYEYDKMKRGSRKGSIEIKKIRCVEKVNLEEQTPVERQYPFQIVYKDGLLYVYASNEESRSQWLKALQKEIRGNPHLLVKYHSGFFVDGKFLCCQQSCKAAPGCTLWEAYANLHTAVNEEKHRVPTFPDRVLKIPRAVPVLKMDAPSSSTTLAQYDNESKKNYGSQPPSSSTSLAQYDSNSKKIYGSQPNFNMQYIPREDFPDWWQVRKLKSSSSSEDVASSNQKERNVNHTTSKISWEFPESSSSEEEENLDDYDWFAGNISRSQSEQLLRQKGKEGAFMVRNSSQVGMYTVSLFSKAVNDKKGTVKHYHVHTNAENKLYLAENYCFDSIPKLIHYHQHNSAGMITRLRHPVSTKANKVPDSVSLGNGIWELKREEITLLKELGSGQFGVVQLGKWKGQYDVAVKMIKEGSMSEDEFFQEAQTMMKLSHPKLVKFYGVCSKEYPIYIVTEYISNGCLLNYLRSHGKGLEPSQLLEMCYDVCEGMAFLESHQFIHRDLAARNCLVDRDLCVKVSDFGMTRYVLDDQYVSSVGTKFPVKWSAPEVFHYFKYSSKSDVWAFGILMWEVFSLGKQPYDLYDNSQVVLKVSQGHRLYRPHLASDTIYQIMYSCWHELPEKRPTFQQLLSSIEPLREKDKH
The experiment in a line: Selectivity interaction (Upstate Kinase Profiler service (Millipore)) EUB0000056c BMX. The following applies: at 1 µM.

Assay [2] has as its target T2, Serine/threonine-protein kinase BRSK2 (Homo sapiens) (UniProt Q8IWQ3).
T2 sequence (whole entry): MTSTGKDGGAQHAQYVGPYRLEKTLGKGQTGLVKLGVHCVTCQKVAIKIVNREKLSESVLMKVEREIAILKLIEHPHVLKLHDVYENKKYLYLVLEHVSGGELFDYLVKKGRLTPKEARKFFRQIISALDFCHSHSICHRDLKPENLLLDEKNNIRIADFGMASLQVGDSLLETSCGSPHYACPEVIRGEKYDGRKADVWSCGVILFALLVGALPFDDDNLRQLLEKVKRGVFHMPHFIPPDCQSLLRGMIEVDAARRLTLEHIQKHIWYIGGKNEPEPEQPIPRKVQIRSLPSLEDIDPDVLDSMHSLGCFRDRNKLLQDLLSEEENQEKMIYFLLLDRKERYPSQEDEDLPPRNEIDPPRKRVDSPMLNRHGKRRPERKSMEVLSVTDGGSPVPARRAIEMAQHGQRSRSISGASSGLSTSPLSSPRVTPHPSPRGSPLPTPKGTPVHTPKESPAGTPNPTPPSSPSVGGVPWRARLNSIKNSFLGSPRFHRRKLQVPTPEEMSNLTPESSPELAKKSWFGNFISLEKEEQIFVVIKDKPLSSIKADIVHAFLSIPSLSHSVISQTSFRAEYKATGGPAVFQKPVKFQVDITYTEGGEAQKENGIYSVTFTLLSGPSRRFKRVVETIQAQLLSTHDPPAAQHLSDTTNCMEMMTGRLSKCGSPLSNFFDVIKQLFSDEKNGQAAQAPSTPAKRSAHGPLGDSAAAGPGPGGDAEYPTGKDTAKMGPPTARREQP
Kind of assay: Selectivity interaction (KinomeScan (DiscoverX)) EUB0000092b BRSK2. The following applies: at 10 µM.

Assay [3] concerns the target Calcium/calmodulin-dependent protein kinase type II subunit delta (Homo sapiens) (UniProt Q13557). The experiment in a line: Selectivity interaction (KinomeScan (DiscoverX)) EUB0000655a CAMK2D. The following applies: at 10 µM.
Assay [4] deals with T3, Beta-adrenergic receptor kinase 1 (Homo sapiens) (UniProt P25098).
T3 sequence (whole entry): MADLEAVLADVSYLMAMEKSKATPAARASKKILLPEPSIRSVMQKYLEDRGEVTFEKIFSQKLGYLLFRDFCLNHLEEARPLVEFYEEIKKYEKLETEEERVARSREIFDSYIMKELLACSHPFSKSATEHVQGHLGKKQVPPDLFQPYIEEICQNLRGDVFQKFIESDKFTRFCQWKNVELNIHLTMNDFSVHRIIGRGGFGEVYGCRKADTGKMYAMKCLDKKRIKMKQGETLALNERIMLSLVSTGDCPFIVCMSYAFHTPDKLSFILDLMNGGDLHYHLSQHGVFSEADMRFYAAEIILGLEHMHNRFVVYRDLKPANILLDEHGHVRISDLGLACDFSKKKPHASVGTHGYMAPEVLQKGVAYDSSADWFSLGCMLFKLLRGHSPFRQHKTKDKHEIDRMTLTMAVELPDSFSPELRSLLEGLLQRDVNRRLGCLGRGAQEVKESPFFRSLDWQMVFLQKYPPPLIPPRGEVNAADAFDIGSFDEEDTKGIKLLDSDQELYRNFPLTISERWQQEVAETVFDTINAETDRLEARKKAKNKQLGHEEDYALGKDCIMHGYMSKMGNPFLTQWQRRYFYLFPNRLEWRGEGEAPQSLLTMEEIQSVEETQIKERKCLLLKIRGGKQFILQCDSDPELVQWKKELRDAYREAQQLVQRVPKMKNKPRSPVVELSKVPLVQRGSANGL
The experiment in a line: Selectivity interaction (KinomeScan (DiscoverX)) EUB0000695a ADRBK1. The following applies: at 100 nM.

Assay [5] deals with MAP kinase-interacting serine/threonine-protein kinase 1 (Homo sapiens) (UniProt Q9BUB5). Kind of assay: Selectivity interaction (KinomeScan (DiscoverX)) EUB0000666a MKNK1. Conditions: at 10 µM.
Sequence of MAP kinase-interacting serine/threonine-protein kinase 1 (Homo sapiens) (Q9BUB5 whole entry, looked up, canonical isoform): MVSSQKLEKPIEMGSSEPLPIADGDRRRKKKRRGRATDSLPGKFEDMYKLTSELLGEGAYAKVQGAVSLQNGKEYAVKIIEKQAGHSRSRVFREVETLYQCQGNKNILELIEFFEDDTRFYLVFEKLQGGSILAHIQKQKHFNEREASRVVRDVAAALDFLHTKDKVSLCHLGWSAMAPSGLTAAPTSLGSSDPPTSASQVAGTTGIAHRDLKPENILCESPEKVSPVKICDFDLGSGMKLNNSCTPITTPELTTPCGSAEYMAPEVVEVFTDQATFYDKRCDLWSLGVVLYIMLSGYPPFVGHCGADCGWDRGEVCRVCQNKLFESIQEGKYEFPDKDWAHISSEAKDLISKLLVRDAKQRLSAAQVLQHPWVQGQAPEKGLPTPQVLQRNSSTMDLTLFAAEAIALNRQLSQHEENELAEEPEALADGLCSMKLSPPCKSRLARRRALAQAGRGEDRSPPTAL
Assay [6] addresses Phosphatidylinositol 4,5-bisphosphate 3-kinase catalytic subunit alpha isoform (Homo sapiens) (UniProt P42336). The experiment in a line: Selectivity interaction (Kinase panel (literature)) EUB0001199aCl PIK3CA. Conditions: at 1 µM.

Sequence of Calcium/calmodulin-dependent protein kinase type II subunit delta (Homo sapiens) (Q13557 whole entry): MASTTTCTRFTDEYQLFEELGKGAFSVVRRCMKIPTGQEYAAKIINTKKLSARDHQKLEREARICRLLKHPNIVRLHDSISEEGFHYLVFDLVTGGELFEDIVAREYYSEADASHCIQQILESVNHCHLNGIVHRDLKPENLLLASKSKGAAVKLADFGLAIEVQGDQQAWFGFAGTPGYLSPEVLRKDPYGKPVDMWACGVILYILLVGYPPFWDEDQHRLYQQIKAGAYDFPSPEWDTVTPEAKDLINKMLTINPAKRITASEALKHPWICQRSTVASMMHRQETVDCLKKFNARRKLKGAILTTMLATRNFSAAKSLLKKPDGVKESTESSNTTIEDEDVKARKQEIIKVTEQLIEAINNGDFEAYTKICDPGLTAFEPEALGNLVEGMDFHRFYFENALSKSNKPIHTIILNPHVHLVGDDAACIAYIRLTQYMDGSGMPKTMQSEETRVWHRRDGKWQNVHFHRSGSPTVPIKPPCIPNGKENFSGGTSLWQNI
Sequence of Phosphatidylinositol 4,5-bisphosphate 3-kinase catalytic subunit alpha isoform (Homo sapiens) (P42336 whole entry, canonical isoform): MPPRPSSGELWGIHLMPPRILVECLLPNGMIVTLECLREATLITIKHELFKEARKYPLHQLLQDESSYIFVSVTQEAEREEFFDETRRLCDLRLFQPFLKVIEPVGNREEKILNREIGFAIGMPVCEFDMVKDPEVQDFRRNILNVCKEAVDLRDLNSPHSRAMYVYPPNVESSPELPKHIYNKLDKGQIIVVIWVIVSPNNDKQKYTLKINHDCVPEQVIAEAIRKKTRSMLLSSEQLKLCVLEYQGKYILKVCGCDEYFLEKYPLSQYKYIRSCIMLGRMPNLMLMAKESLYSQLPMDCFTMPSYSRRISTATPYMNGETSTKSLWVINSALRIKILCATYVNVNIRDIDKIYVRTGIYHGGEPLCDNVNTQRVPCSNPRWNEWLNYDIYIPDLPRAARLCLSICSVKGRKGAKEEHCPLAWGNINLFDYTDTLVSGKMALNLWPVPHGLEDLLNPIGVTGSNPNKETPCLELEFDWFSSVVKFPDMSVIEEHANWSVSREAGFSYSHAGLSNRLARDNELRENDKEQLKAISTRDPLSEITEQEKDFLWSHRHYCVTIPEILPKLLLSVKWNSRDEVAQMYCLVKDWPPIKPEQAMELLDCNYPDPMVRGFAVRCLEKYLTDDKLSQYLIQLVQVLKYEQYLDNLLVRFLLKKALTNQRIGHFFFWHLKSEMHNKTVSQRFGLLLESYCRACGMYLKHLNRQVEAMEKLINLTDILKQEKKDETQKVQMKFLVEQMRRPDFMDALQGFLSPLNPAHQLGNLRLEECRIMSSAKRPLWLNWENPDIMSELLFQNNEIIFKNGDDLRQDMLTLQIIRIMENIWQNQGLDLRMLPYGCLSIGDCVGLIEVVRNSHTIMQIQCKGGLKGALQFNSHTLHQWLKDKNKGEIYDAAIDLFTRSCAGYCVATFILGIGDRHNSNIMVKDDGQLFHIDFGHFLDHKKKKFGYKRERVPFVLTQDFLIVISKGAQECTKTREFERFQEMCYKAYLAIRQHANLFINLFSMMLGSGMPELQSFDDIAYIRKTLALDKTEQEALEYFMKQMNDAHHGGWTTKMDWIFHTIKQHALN

As to `Cc1ccc(-c2ccc3c(ccc4sc5c(c43)NC[C@@H](C)NC5=O)n2)cn1`, the % of inhibition in assay [1] was determined as 4%.
The compound `CCC(=O)N1CCN(c2ccc(-n3c(=O)ccc4cnc5ccc(-c6cnc7ccccc7c6)cc5c43)cc2C(F)(F)F)CC1` registered a % of control in assay [2] of 76%.
In the case of `CN(C)CCOc1ccc(-c2nc(-c3ccncc3)c(-c3ccc4c(c3)CC/C4=N\O)[nH]2)cc1`, the % of control in assay [3] came to 100%.
On to `Cc1cc(F)c(C(=O)Nc2cccc(-c3nncn3C(C)C)n2)cc1-n1cnc(C2CC2)c1`, for which the % of control in assay [4] was 70%.
In the case of `O=C(NOC[C@H](O)CO)c1ccc(F)c(F)c1Nc1ccc(I)cc1F`, the % of control in assay [5] amounted to 100%.
For `CN1Cc2nccc(-c3cn(C)nc3-c3ccc(F)cc3)c2C1=O`, in assay [6], the % of inhibition was 1%.
